{"source": "patent US20230203485A1", "about": "“METHODS FOR MODULATING MHC-I EXPRESSION AND IMMUNOTHERAPY USES THEREOF” (Dana-Farber Cancer Institute, Inc., priority 2020, published 2023)", "assay_type_in_all_cases": "cell-based, human", "key": {"[1]": {"test_system": "HLA-DR expression on MCC cell lines", "assay": "Flow cytometry assessment of HLA-DR expression in MCC lines at baseline and after IFN-γ", "settings": "MCC-301 line", "protocol": "FIG. 1N is a graph showing flow cytometry assessment of HLA-DR expression in all 11 MCC lines, both at baseline (light pink) and after IFN-γ treatment (red).\nCells were dissociated with Versene and incubated with 5 μL Human TruStain FcX (Fc receptor blocking solution; Biolegend, Dedham, Mass.) per million cells in […] at room temperature for 10 min. Fluorochrome-conjugated antibodies or respective isotype controls were immediately added and incubated for another 30 min at 4° C. Cells were then washed once with PBS and resuspended in PBS containing 4% paraformaldehyde and analyzed on LSR Fortessa cytometers. Additional steps were described for individual experiments as below. For upregulation of HLA Class I experiment, 5×10^5 MCC cells were treated with increasing doses of IFNα2b, IFN3, IFNγ for 24 hours, or MEK inhibitors and DMSO for 72 hours before staining with W6/32 and Live/Dead as above."}, "[2]": {"test_system": "surface HLA-I", "assay": "Interferon treatment of MCC lines, surface HLA-I by flow cytometry", "protocol": "(§1) Cells were dissociated with Versene and incubated with 5 μL Human TruStain FcX (Fc Receptor Blocking Solution; Biolegend #422302) per million cells in 100 μL at room temperature for 10 min. Fluorophore-conjugated antibodies or respective isotype controls were added and incubated for another 30 min at 4° C. Cells were then washed once with PBS and resuspended in PBS or 4% paraformaldehyde and analyzed on an LSR Fortessa cytometer. For HLA-I and HLA-II detection, the following antibodies were used: HLA-ABC (W6/32 clone) conjugated to PE (BioLegend #311406), APC (BioLegend #311410), or AF647 (Santa Cruz Biotechnology #sc32235 AF647), and HLA-DR-FITC (BioLegend #307604)."}, "[3]": {"test_system": "HLA-DR", "assay": "IFN-γ treatment, HLA-DR by flow cytometry", "settings": "MCC-301 cell line", "protocol": "as §1"}}}
{"substance": "IFN-y: type II interferon, recombinant human, used to treat MCC cells", "values": [{"measurement": "HLA-DR expression", "setting": "[1]", "value": "inducible HLA-DR expression"}]}
{"substance": "IFN-γ: interferon gamma used to stimulate MCC cell lines", "values": [{"measurement": "fold increase in MFI of HLA-I after IFN-γ exposure", "setting": "[2]; 8 lines", "value": "≥ 2.5", "unit": "fold"}, {"measurement": "median fold increase in MFI of HLA-I after IFN-γ exposure", "setting": "[2]; 8 lines", "value": 5.7, "unit": "fold"}, {"measurement": "range of fold increase in MFI of HLA-I after IFN-γ exposure", "setting": "[2]; 8 lines", "value": "2.5-12.4 fold"}, {"measurement": "fold increase in MFI of HLA-I after IFN-γ exposure", "setting": "[2]; three lines (MCC-336, -350, -358)", "value": "≤ 1.15", "unit": "fold"}, {"measurement": "HLA-DR expression", "setting": "[3]", "value": "upregulated"}]}
